Experimental data: patent publication US8211945B2, “Carba-sugar amine derivative and glycolipid metabolic disorder treating agent containing the same as active ingredient” (Seikagaku Corporation, priority 2001, dated 2012)
Numbering of substitutions follows the chain as printed.

Key:
Test in all cases: Mutant β-galactosidase activity in model cells, 4 days culture
Type in all cases: cell-based
[1] = target: T1, human mutant β-galactosidase P263S (Homo sapiens, UniProt P16278, P263S)
T1 construct: expressed in transfected cells; host or cells: SV40-immortalized skin fibroblasts of a β-galactosidase-deficient knockout mouse
T1 sequence (P16278 29-677 P263S): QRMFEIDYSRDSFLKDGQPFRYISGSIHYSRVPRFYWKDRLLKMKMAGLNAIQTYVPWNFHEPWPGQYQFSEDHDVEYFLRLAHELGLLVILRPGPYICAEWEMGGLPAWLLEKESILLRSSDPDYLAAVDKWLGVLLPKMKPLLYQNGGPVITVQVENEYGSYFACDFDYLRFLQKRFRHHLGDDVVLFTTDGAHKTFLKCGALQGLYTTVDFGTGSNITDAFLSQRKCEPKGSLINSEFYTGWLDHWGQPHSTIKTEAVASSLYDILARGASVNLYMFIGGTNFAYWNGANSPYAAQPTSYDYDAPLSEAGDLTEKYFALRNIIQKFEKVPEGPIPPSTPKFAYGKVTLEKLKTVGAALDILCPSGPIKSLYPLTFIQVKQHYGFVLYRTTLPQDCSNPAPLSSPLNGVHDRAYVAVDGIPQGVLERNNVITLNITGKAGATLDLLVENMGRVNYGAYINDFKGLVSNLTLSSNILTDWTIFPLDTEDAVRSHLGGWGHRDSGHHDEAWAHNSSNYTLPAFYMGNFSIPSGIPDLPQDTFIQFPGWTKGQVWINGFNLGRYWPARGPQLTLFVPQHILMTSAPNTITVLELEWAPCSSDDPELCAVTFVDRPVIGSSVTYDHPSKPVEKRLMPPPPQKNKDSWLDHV
From the text: (§1) Cultured skin fibroblasts of a β-galactosidase-deficient knockout mouse was immortalized by introducing an SV40 viral gene, and enzyme genes integrated into pSV2neo and an expression vector were also introduced simultaneously, thereby establishing a model cell (Brain Dev., 23(5), 284-287, 2001). The genes used are human normal (GP8) and mutant β-galactosidase gene Y316C, G123R (infantile GM1-gangliosidosis), R201C (juvenile GM1-gangliosidosis), 151T, T82M, R201H, R263S, R457Q (adult GM1-gangliosidosis), W273L, Y83H, R482H and R482C (Morquio-B disease) (Hum. Genet., 93(2), 109-114, 1994).
(§2) As a control substance, 0.5 mM N-(n-butyl)-deoxygalactonojirimycin (NB-DGJ: The Journal of Biological Chemistry, 269, 27108-27114 (1994)) was used, and the substance 18 of the present invention was used in an amount of 0.2 μM.
(§3) Specifically, after culturing the model cell for 4 days using a cell culture medium (10% FCS DMEM) containing the substance 18 of the present invention, the resulting cells were recovered and diluted such that the amount of protein in the suspension became a predetermined level, and then enzyme activity in the diluted suspension was measured. Using 4-methylumbelliferyl-β-D-galactopyranoside as the fluorescent substrate, the enzyme activity during 30 minutes was measured at 37° C.

[2] = target: T2, human mutant β-galactosidase R201C (Homo sapiens, UniProt P16278, R201C)
T2 construct: from tissue
T2 sequence (P16278 29-677 R201C): T1 sequence (P16278 29-677 P263S) with R173C, S235P
From the text: as §1, §2, §3

[3] = target: T3, human mutant β-galactosidase Y83H (Homo sapiens, UniProt P16278, Y83H)
T3 construct: expressed in transfected cells; host or cells: SV40-immortalized skin fibroblasts of a β-galactosidase-deficient knockout mouse
T3 sequence (P16278 29-677 Y83H): T1 sequence (P16278 29-677 P263S) with Y55H, S235P
From the text: as §1, §2, §3

| Structure (SMILES) | Relative ratio (×100%) ([1]; P263S, substance 18 vs control) | enzyme activity ([1]; transferred gene P263S, 0.2 μM, 4 days) | enzyme activity increased in comparison with the control ([2]; R201C, 0.2 μM) [%] | Relative ratio (×100%) ([2]; R201C, substance 18 vs control) | enzyme activity ([2]; transferred gene R201C, 0.2 μM, 4 days) | enzyme activity increased in comparison with the control ([3]; Y83H, 0.2 μM) [%] | Relative ratio (×100%) ([3]; Y83H, substance 18 vs control) | enzyme activity ([3]; transferred gene Y83H, 0.2 μM, 4 days) | enzyme activity, Control ([1]; transferred gene P263S, control substance 0.5 mM NB-DGJ) | enzyme activity, Control ([2]; transferred gene R201C, control substance 0.5 mM NB-DGJ) | enzyme activity, Control ([3]; transferred gene Y83H, control substance 0.5 mM NB-DGJ) |
| --- | --- | --- | --- | --- | --- | --- | --- | --- | --- | --- | --- |
| CCCCCCCCN[C@@H]1C=C(CO)[C@H](O)C(O)[C@@H]1O (stereo partly drawn) [Substance 18, N-octyl-5a-carba-α-L-arabino-hexo-5(5a)-enopyranosylamine] | 6.58 ×100% | 0.12 | ≥ 150 | 2.43 ×100% | 48.88 | ≥ 150 | 2.27 ×100% | 20.16 |  |  |  |
| CCCCN1C[C@H](O)[C@@H](O)[C@@H](O)[C@H]1CO [Control, N-(n-butyl)-deoxygalactonojirimycin, reference compound] |  |  |  |  |  |  |  |  | 0.02 | 20.16 | 8.89 |
